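Cultured in 96-well plates, cells were exposed to test compound for 48 hours across five concentrations. The concentration for 50% growth inhibition is given as GI50. TGI: concentration producing complete growth inhibition.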
How the values were obtained:
Experiment in all cases: NCI-60 cell line screen, 48 h
786-0 renal = test system: 786-0 renal
A498 renal = test system: A498 renal
A549 NSCLC = test system: A549 NSCLC
ACHN renal = test system: ACHN renal
BT-549 breast = test system: BT-549 breast
CAKI-1 renal = test system: CAKI-1 renal
CCRF-CEM leukemia = test system: CCRF-CEM leukemia
COLO 205 colon = test system: COLO 205 colon
DU-145 prostate = test system: DU-145 prostate
EKVX NSCLC = test system: EKVX NSCLC
HCT-116 colon = test system: HCT-116 colon
HCT-15 colon = test system: HCT-15 colon
HL-60(TB) leukemia = test system: HL-60(TB) leukemia
HOP-62 NSCLC = test system: HOP-62 NSCLC
HOP-92 NSCLC = test system: HOP-92 NSCLC
HS 578T breast = test system: HS 578T breast
HT29 colon = test system: HT29 colon
IGROV1 ovarian = test system: IGROV1 ovarian
K-562 leukemia = test system: K-562 leukemia
KM12 colon = test system: KM12 colon
LOX IMVI melanoma = test system: LOX IMVI melanoma
M14 melanoma = test system: M14 melanoma
MALME-3M melanoma = test system: MALME-3M melanoma
MCF7 breast = test system: MCF7 breast
MDA-MB-231 breast = test system: MDA-MB-231 breast
MDA-MB-435 = test system: MDA-MB-435
MOLT-4 leukemia = test system: MOLT-4 leukemia
NCI-H226 lung = test system: NCI-H226 lung
NCI-H23 lung = test system: NCI-H23 lung
NCI-H460 lung = test system: NCI-H460 lung
NCI-H522 lung = test system: NCI-H522 lung
NCI/ADR-RES ovarian = test system: NCI/ADR-RES ovarian
OVCAR-3 ovarian = test system: OVCAR-3 ovarian
OVCAR-4 ovarian = test system: OVCAR-4 ovarian
OVCAR-5 ovarian = test system: OVCAR-5 ovarian
OVCAR-8 ovarian = test system: OVCAR-8 ovarian
PC-3 prostate = test system: PC-3 prostate
RPMI-8226 leukemia = test system: RPMI-8226 leukemia
RXF 393 renal = test system: RXF 393 renal
SF-268 CNS = test system: SF-268 CNS
SF-295 CNS = test system: SF-295 CNS
SF-539 CNS = test system: SF-539 CNS
SK-MEL-2 melanoma = test system: SK-MEL-2 melanoma
SK-MEL-28 melanoma = test system: SK-MEL-28 melanoma
SK-OV-3 ovarian = test system: SK-OV-3 ovarian
SNB-19 CNS = test system: SNB-19 CNS
SNB-75 CNS = test system: SNB-75 CNS
SR leukemia = test system: SR leukemia
SW-620 colon = test system: SW-620 colon
TK-10 renal = test system: TK-10 renal
U251 CNS = test system: U251 CNS
UACC-257 melanoma = test system: UACC-257 melanoma
UACC-62 melanoma = test system: UACC-62 melanoma
UO-31 renal = test system: UO-31 renal

Structure (SMILES): COc1cc2c3c(n(CCCNCC(OC)OC)c(=O)c2cc1OC)-c1cc2c(cc1C3=O)OCO2
- GI50 (786-0 renal): 0.274 µM
- TGI (786-0 renal): 8.75 µM
- GI50 (A498 renal): 14 µM
- TGI (A498 renal): 33.9 µM
- GI50 (A549 NSCLC): 11.2 µM
- TGI (A549 NSCLC): 37.9 µM
- GI50 (ACHN renal): 5.34 µM
- TGI (ACHN renal): > 37.4 µM
- GI50 (BT-549 breast): 4.06 µM
- TGI (BT-549 breast): > 29.6 µM
- GI50 (CAKI-1 renal): 0.219 µM
- TGI (CAKI-1 renal): 17.2 µM
- GI50 (CCRF-CEM leukemia): < 0.01 µM
- TGI (CCRF-CEM leukemia): 1.8 µM
- GI50 (COLO 205 colon): 14 µM
- TGI (COLO 205 colon): > 61.1 µM
- GI50 (DU-145 prostate): 0.399 µM
- TGI (DU-145 prostate): 13.7 µM
- GI50 (EKVX NSCLC): 15.7 µM
- TGI (EKVX NSCLC): > 57.3 µM
- GI50 (HCT-116 colon): 0.0172 µM
- TGI (HCT-116 colon): 1.31 µM
- GI50 (HCT-15 colon): 17.3 µM
- TGI (HCT-15 colon): > 100 µM
- GI50 (HL-60(TB) leukemia): 2.6 µM
- TGI (HL-60(TB) leukemia): > 28.3 µM
- GI50 (HOP-62 NSCLC): 0.126 µM
- TGI (HOP-62 NSCLC): 4.66 µM
- GI50 (HOP-92 NSCLC): 1.45 µM
- TGI (HOP-92 NSCLC): 19.1 µM
- GI50 (HS 578T breast): 10.4 µM
- TGI (HS 578T breast): > 29.3 µM
- GI50 (HT29 colon): 4.99 µM
- TGI (HT29 colon): 32.2 µM
- GI50 (IGROV1 ovarian): 10.3 µM
- TGI (IGROV1 ovarian): > 74.4 µM
- GI50 (K-562 leukemia): 0.91 µM
- TGI (K-562 leukemia): > 46.8 µM
- GI50 (KM12 colon): 2.14 µM
- TGI (KM12 colon): 34.6 µM
- GI50 (LOX IMVI melanoma): 1.46 µM
- TGI (LOX IMVI melanoma): > 29.8 µM
- GI50 (M14 melanoma): 0.345 µM
- TGI (M14 melanoma): > 37.2 µM
- GI50 (MALME-3M melanoma): 21 µM
- TGI (MALME-3M melanoma): 47.6 µM
- GI50 (MCF7 breast): < 0.0315 µM
- TGI (MCF7 breast): > 48.6 µM
- GI50 (MDA-MB-231 breast): 3.09 µM
- TGI (MDA-MB-231 breast): 20 µM
- GI50 (MDA-MB-435): 10.4 µM
- TGI (MDA-MB-435): 97 µM
- GI50 (MOLT-4 leukemia): < 0.01 µM
- TGI (MOLT-4 leukemia): 1.14 µM
- GI50 (NCI-H226 lung): 6.63 µM
- TGI (NCI-H226 lung): 42.5 µM
- GI50 (NCI-H23 lung): 1.84 µM
- TGI (NCI-H23 lung): 29.9 µM
- GI50 (NCI-H460 lung): 0.0972 µM
- TGI (NCI-H460 lung): 20.5 µM
- GI50 (NCI-H522 lung): 18.2 µM
- TGI (NCI-H522 lung): > 100 µM
- GI50 (NCI/ADR-RES ovarian): 0.338 µM
- TGI (NCI/ADR-RES ovarian): 29.3 µM
- GI50 (OVCAR-3 ovarian): 3.81 µM
- TGI (OVCAR-3 ovarian): 32.7 µM
- GI50 (OVCAR-4 ovarian): 20.1 µM
- TGI (OVCAR-4 ovarian): 42.7 µM
- GI50 (OVCAR-5 ovarian): 16.9 µM
- TGI (OVCAR-5 ovarian): 37.8 µM
- GI50 (OVCAR-8 ovarian): 8.31 µM
- TGI (OVCAR-8 ovarian): 38.4 µM
- GI50 (PC-3 prostate): 2.35 µM
- TGI (PC-3 prostate): 40.6 µM
- GI50 (RPMI-8226 leukemia): < 0.01 µM
- TGI (RPMI-8226 leukemia): 0.197 µM
- GI50 (RXF 393 renal): 3.84 µM
- TGI (RXF 393 renal): 21.6 µM
- GI50 (SF-268 CNS): 1.05 µM
- TGI (SF-268 CNS): > 55.1 µM
- GI50 (SF-295 CNS): 0.303 µM
- TGI (SF-295 CNS): 49.4 µM
- GI50 (SF-539 CNS): 2.42 µM
- TGI (SF-539 CNS): 24.9 µM
- GI50 (SK-MEL-2 melanoma): > 49.1 µM
- TGI (SK-MEL-2 melanoma): > 73.5 µM
- GI50 (SK-MEL-28 melanoma): 18.4 µM
- TGI (SK-MEL-28 melanoma): 36.3 µM
- GI50 (SK-OV-3 ovarian): 22.8 µM
- TGI (SK-OV-3 ovarian): > 100 µM
- GI50 (SNB-19 CNS): 10.2 µM
- TGI (SNB-19 CNS): > 100 µM
- GI50 (SNB-75 CNS): 17 µM
- TGI (SNB-75 CNS): > 59.1 µM
- GI50 (SR leukemia): < 0.01 µM
- GI50 (SW-620 colon): 2.05 µM
- TGI (SW-620 colon): 24.2 µM
- GI50 (TK-10 renal): 11.9 µM
- TGI (TK-10 renal): 47.8 µM
- GI50 (U251 CNS): 4.32 µM
- TGI (U251 CNS): > 48.6 µM
- GI50 (UACC-257 melanoma): 33.3 µM
- TGI (UACC-257 melanoma): > 89.2 µM
- GI50 (UACC-62 melanoma): 1.63 µM
- TGI (UACC-62 melanoma): 22.6 µM
- GI50 (UO-31 renal): 2.13 µM
- TGI (UO-31 renal): 22.5 µM
